pIC50: −log10 of the molar value. Where two headings read alike, the source gives them in different places.
Columns and labels:
Experiment in all cases: cells
[1] = tested on: A375; details: Homo sapiens
Procedure: (§1) Cancer cell line viability assay was performed using a CellTiterGlo assay. Cells were cultured in their appropriate media and seeded in white multi-well plates. For the assays, cells were incubated with compound at 37°C overnight, and a CellTiterGlo assay was performed to quantify viable cells.

[2] = tested on: BEN; details: read-out: IC50 ARN22089
Procedure: as §1

[3] = tested on: Caki-2; details: Homo sapiens, CAKI-2, read-out: IC50 ARN22089
Procedure: as §1

[4] = tested on: DLD-1; details: Homo sapiens, DLD-1, read-out: IC50 ARN22089
Procedure: as §1

[5] = tested on: DV90; details: Homo sapiens, DV-90, read-out: IC50 ARN22089
Procedure: as §1

[6] = tested on: EPLC-272H; details: Homo sapiens, read-out: IC50 ARN22089
Procedure: as §1

[7] = tested on: H1299; details: Homo sapiens, NCI-H1299, read-out: IC50 ARN22089
Procedure: as §1

[8] = tested on: HCC38; details: Homo sapiens, HCC38, read-out: IC50 ARN22089
Procedure: as §1

[9] = tested on: HCC827; details: Homo sapiens, HCC827, read-out: IC50 ARN22089
Procedure: as §1

[10] = tested on: HCT-15; details: Homo sapiens, HCT-15, read-out: IC50 ARN22089
Procedure: as §1

[11] = tested on: HEC-1-B; details: Homo sapiens, read-out: IC50 ARN22089
Procedure: as §1

[12] = tested on: HT-29; details: Homo sapiens, HT-29, read-out: IC50 ARN22089
Procedure: as §1

[13] = tested on: Hep3B2.1-7; details: read-out: IC50 ARN22089
Procedure: as §1

[14] = tested on: Ishikawa; details: Homo sapiens, read-out: IC50 ARN22089
Procedure: as §1

[15] = tested on: KARPAS 299; details: Homo sapiens, KARPAS-299, read-out: IC50 ARN22089
Procedure: as §1

[16] = tested on: LN229; details: Homo sapiens, LN-229, read-out: IC50 ARN22089
Procedure: as §1

[17] = tested on: M07e; details: M-07e, read-out: IC50 ARN22089
Procedure: as §1

[18] = tested on: MDAMB231; details: Homo sapiens, MDA-MB-231, read-out: IC50 ARN22089
Procedure: as §1

[19] = tested on: MKN-45; details: Homo sapiens, MKN-45, read-out: IC50 ARN22089
Procedure: as §1

[20] = tested on: MV4-11; details: Homo sapiens, MV4-11, read-out: IC50 ARN22089
Procedure: as §1

[21] = tested on: NCI-H1437; details: Homo sapiens, NCI-H1437, read-out: IC50 ARN22089
Procedure: as §1

[22] = tested on: NCI-H1581; details: Homo sapiens, NCI-H1581, read-out: IC50 ARN22089
Procedure: as §1

[23] = tested on: NCI-H1703; details: Homo sapiens, NCI-H1703, read-out: IC50 ARN22089
Procedure: as §1

[24] = tested on: NCI-H1838; details: Homo sapiens, NCI-H1838, read-out: IC50 ARN22089
Procedure: as §1

[25] = tested on: NCI-H2110; details: NCI-H2110, read-out: IC50 ARN22089
Procedure: as §1

[26] = tested on: NCI-H2286; details: Homo sapiens, NCI-H2286, read-out: IC50 ARN22089
Procedure: as §1

[27] = tested on: NCI-H292; details: Homo sapiens, NCI-H292, read-out: IC50 ARN22089
Procedure: as §1

[28] = tested on: NCI-H441; details: Homo sapiens, NCI-H441, read-out: IC50 ARN22089
Procedure: as §1

[29] = tested on: NCI-H838; details: Homo sapiens, NCI-H838, read-out: IC50 ARN22089
Procedure: as §1

[30] = tested on: OVK18; details: OVK18, read-out: IC50 ARN22089
Procedure: as §1

[31] = tested on: P31/FUJ; details: Homo sapiens, read-out: IC50 ARN22089
Procedure: as §1

[32] = tested on: PC3; details: Homo sapiens, PC-3, read-out: IC50 ARN22089
Procedure: as §1

[33] = tested on: RERF-LC-MS; details: read-out: IC50 ARN22089
Procedure: as §1

[34] = tested on: RKO; details: Homo sapiens, read-out: IC50 ARN22089
Procedure: as §1

[35] = tested on: SJSA-1; details: Homo sapiens, SJSA-1, read-out: IC50 ARN22089
Procedure: as §1

[36] = tested on: SK-ES-1; details: Homo sapiens, SK-ES1, read-out: IC50 ARN22089
Procedure: as §1

[37] = tested on: SK-LU-1; details: Homo sapiens, SK-LU-1, read-out: IC50 ARN22089
Procedure: as §1

[38] = tested on: SK-N-MC; details: Homo sapiens, read-out: IC50 ARN22089
Procedure: as §1

[39] = tested on: SK-OV3; details: Homo sapiens, SK-OV-3, read-out: IC50 ARN22089
Procedure: as §1

[40] = tested on: SKMel3; details: Homo sapiens, SK-MEL3, read-out: IC50 Skmel3
Procedure: as §1

[41] = tested on: U2OS; details: Homo sapiens, read-out: IC50 ARN22089
Procedure: as §1

[42] = tested on: WM3248, SKMel3, A375, SW480, and SKM28; details: WM3248, SKMel3, A375, and SW480
Procedure: as §1

Work on CN(C)c1cccc(Nc2cc(-c3ccccc3)nc(C3CCNCC3)n2)c1 [ARN22089, N1,N1-dimethyl-N3-(6-phenyl-2-(piperidin-4-yl)pyrimidin-4-yl)benzene-1,3-diamine] yielded a pIC50 ([1]; A-375, read-out: IC50 A375) of 5.31, a pIC50 ([1]; A-375, read-out: IC50 ARN22089) of 5.35 and a pIC50 [2] of 4.92. The pIC50 [3] was 5.00, the pIC50 [4] was 5.30 and the pIC50 [5] was 4.54. It also gave a pIC50 [6] of 4.80, a pIC50 [7] of 4.96 and a pIC50 [8] of 5.00. For the same compound, the pIC50 [9] was 4.96, the pIC50 [10] was 5.06 and the pIC50 [11] was 4.74. The pIC50 [12] was 5.46, the pIC50 [13] was 5.44 and the pIC50 [14] was 5.07. It also gave a pIC50 [15] of 4.96, a pIC50 [16] of 5.11 and a pIC50 [17] of 4.96. The pIC50 [18] was 5.00, the pIC50 [19] was 5.39 and the pIC50 [20] was 5.36. For the same compound, the pIC50 [21] was 4.80, the pIC50 [22] was 4.62 and the pIC50 [23] was 4.43. For the same compound, the pIC50 [24] was 4.77, the pIC50 [25] was 4.68 and the pIC50 [26] was 4.85. It also gave a pIC50 [27] of 4.92, a pIC50 [28] of 4.92 and a pIC50 [29] of 4.92. It also gave a pIC50 [30] of 5.12, a pIC50 [31] of 4.85 and a pIC50 [32] of 5.04. For the same compound, the pIC50 [33] was 4.92, the pIC50 [34] was 5.41 and the pIC50 [35] was 5.02. For the same compound, the pIC50 [36] was 4.92, the pIC50 [37] was 5.11 and the pIC50 [38] was 5.33. For the same compound, the pIC50 [39] was 5.12, the pIC50 [40] was 5.37 and the pIC50 [41] was 4.96. For the same compound, the “IC50 activity against the more sensitive cell lines” value [42] was “single-digit micromolar”.

Reference: paper PMC9127750, “Structure-based design of CDC42 effector interaction inhibitors for the treatment of cancer” (Cell reports, 2022)
